# Measurements: patent US20260174867A1, “REDUCTION OF ADIPOSE TISSUE” (LEIOS THERAPEUTICS, INC., priority 2023, published 2026)
# Experiments:
# [1] = test system: human subjects; settings: cited from earlier work
# [2] = test system: fat tissue; experiment: Propylene glycol as co-solvent injected with polidocanol; format: in vivo
# [3] = test system: inguinal fat pad; experiment: Inguinal fat pad mass after a single treatment of polidocanol; format: in vivo; settings: for reduction in inguinal fat pad mass: day 28 after a single treatment
# Procedure: For example, reductions in inguinal fat pad mass of 15% were found at day 28 after a single treatment of polidocanol at doses of 0.5% and 1.25%. […] Thus, in embodiments, the polidocanol is administered approximately once per month and/or at concentrations less than about 2.0%. The treatment may employ about 0.1 to 0.3 mL (e.g. 0.2 mL) of a polidocanol at a concentration provided herein. In embodiments, the polidocanol is a concentration of from about 0.5% and 1.25%. The administration may be via injection. In embodiments, the injection is at a spacing of about 0.2 to 0.8 cm apart across the inguinal fat pad. Thus, in embodiments, the polidocanol is administered approximately once per month and/or at concentrations less than 2.0%. The treatment may employ 0.1 to 0.3 mL (e.g., 0.2 mL) of a polidocanol at a concentration provided herein. In embodiments, the polidocanol is a concentration of from 0.5% and 1.25%. The administration may be via injection. In embodiments, the injection is at a spacing of 0.2 to 0.8 cm apart across the inguinal fat pad. In embodiments, the injection is at a spacing of about 0.5 cm apart across the inguinal fat pad.
# [4] = Kybella Label, spontaneous and elicited AEs, 1-week post-injection
compound,measurement,setting,value
"C[C@H](CCC(=O)O)[C@H]1CC[C@H]2[C@@H]3CC[C@@H]4C[C@H](O)CC[C@]4(C)[C@H]3C[C@H](O)[C@]12C [Kybella, deoxycholic acid]",AE Proportions Post Treatment: Anesthesia (Numbness),[1]; [4],66%
same,AE Proportions Post Treatment: Bruising,[1]; [4],72%
same,AE Proportions Post Treatment: Edema/Swelling,[1]; [4],87%
same,AE Proportions Post Treatment: Erythema,[1]; [4],27%
same,AE Proportions Post Treatment: Induration,[1]; [4],23%
same,AE Proportions Post Treatment: Nerve Injury,[1]; [4],4%
same,AE Proportions Post Treatment: Nodule,[1]; [4],13%
same,AE Proportions Post Treatment: Pain,[1]; [4],70%
same,AE Proportions Post Treatment: Paresthesia,[1]; [4],14%
same,AE Proportions Post Treatment: Pruritis,[1]; [4],12%
same,Injection site adverse events lasting >30 days: Edema/Swelling,[1]; Kybella Label,20%
same,Injection site adverse events lasting >30 days: Induration,[1]; Kybella Label,13%
same,Injection site adverse events lasting >30 days: Injection Site Pain,[1]; Kybella Label,16%
same,Injection site adverse events lasting >30 days: Numbness,[1]; Kybella Label,42%
same,"injection-site adverse events (swelling/edema, bruising, pain) per treatment session","[1]; compared to placebo, FIGS. 9A and 9B",significantly higher percentage of subjects exhibited an adverse reaction
same,"of said subjects, injection related side effect which lasts for more than 30 days",[1]; subcutaneous injection,up to 42%
same,subjects exhibiting an injection related side effect,[1]; subcutaneous injection,≤ 87%
CC(O)CO (centres unmarked) [propylene glycol],irritation when injected with polidocanol,[2],non-irritating
same,patchy and incomplete fat tissue necrosis relative to the absence of co-solvent,[2],reduced amount of patchy and incomplete fat tissue necrosis
polidocanol,reduction in inguinal fat pad mass,[3]; concentration 2.0%,10%
same,reduction in inguinal fat pad mass,[3]; dose 0.5%,15%
same,reduction in inguinal fat pad mass,[3]; dose 1.25%,15%
same,visible change of inguinal fat pad / body contour,[3]; in vivo,externally visible reduction in inguinal fat pad fullness
